Where two headings read alike, the source gives them in different places.
Legend:
[1] = test system: Candida albicans; test: MIC by broth microdilution (CLSI M27-A3); format: cell-based
[2] = test system: Candida lusitaniae; test: MIC by broth microdilution (CLSI M27-A3); format: cell-based

Measured: MIC

C[C@@H]1[C@H](O)[C@@H](C)/C=C/C=C/C=C/C=C/C=C/C=C/C=C/[C@H](O[C@@H]2O[C@H](C)[C@@H](O)[C@H](N)[C@@H]2O)C[C@@H]2O[C@](O)(C[C@@H](O)C[C@@H](O)[C@H](O)CC[C@@H](O)C[C@@H](O)CC(=O)O[C@H]1C)C[C@H](O)[C@H]2C(=O)O [AMB, amphotericin B]
0.4 µM: [2]; C. lusitaniae (CL3), […]10^3 cells/mL, 35°C, read-out: MIC | [2]; CL3, […]10^5 cells/mL, 30°C, OD600 48 h, avg., read-out: MIC
0.8 µg/mL: [1]; Gu5, […]10^5 cells/mL, 30°C, OD600 48 h, avg. | [1]; Gu5, […]10^5 cells/mL, 30°C, OD600 48 h, trial 1 | [1]; Gu5, […]10^5 cells/mL, 30°C, OD600 48 h, trial 2 | [1]; SC5314, […]10^5 cells/mL, 30°C, OD600 48 h, avg. | [1]; SC5314, […]10^5 cells/mL, 30°C, OD600 48 h, trial 1 | [1]; SC5314, […]10^5 cells/mL, 30°C, OD600 48 h, trial 2
3.13 µg/mL: [1]; C. albicans (E4), Amp B Resistant, RPMI 1640 (0.2% Glucose), […]10^5 cells/mL, 30° C.
1.6 µg/mL: [1]; K1, […]10^5 cells/mL, 30°C, OD600 48 h, avg. | [1]; K1, […]10^5 cells/mL, 30°C, OD600 48 h, trial 1 | [1]; K1, […]10^5 cells/mL, 30°C, OD600 48 h, trial 2
<1.6 µg/mL: [1]; Gu5, […]10^3 cells/mL, 35°C, OD600 24 h, trial 1 | [1]; K1, […]10^3 cells/mL, 35°C, OD600 24 h, avg. | [1]; K1, […]10^3 cells/mL, 35°C, OD600 24 h, trial 1 | [1]; K1, […]10^3 cells/mL, 35°C, OD600 24 h, trial 2 | [2]; CL3, […]10^3 cells/mL, 35°C, OD600 24 h, avg. | [2]; CL3, […]10^3 cells/mL, 35°C, OD600 24 h, trial 1 | [2]; CL3, […]10^3 cells/mL, 35°C, OD600 24 h, trial 2
3.4 µM: [1]; C. albicans (E4), […]10^3 cells/mL, 35°C, read-out: MIC | [1]; E4, […]10^5 cells/mL, 30°C, OD600 48 h, avg., read-out: MIC | [1]; E4, […]10^5 cells/mL, 30°C, OD600 48 h, trial 1, read-out: MIC | [1]; E4, […]10^5 cells/mL, 30°C, OD600 48 h, trial 2, read-out: MIC | [1]; Gu5, […]10^3 cells/mL, 35°C, OD600 24 h, trial 2, read-out: MIC | [1]; SC5314, […]10^3 cells/mL, 35°C, OD600 24 h, trial 1, read-out: MIC
1.7 µM: [1]; C. albicans (K1), […]10^3 cells/mL, 35°C, read-out: MIC | [1]; K1, […]10^5 cells/mL, 30°C, OD600 48 h, avg., read-out: MIC | [1]; K1, […]10^5 cells/mL, 30°C, OD600 48 h, trial 1, read-out: MIC | [1]; K1, […]10^5 cells/mL, 30°C, OD600 48 h, trial 2, read-out: MIC
5.1 µM: [1]; SC5314, […]10^3 cells/mL, 35°C, OD600 24 h, avg., read-out: MIC
2.2 µM: [1]; Gu5, […]10^3 cells/mL, 35°C, OD600 24 h, avg., read-out: MIC
0.78 µg/mL: [1]; C. albicans (Gu5), Fluconazole Resistant, RPMI 1640 (0.2% Glucose), […]10^5 cells/mL, 30° C. | [1]; C. albicans (K1), Fluconazole Resistant, RPMI 1640 (0.2% Glucose), […]10^5 cells/mL, 30° C. | [1]; C. albicans (SCG5314), Sensitive, RPMI 1640 (0.2% Glucose), […]10^5 cells/mL, 30° C.
0.4 µg/mL: [2]; C. Lusitania (CL3), Sensitive, RPMI 1640 (0.2% Glucose), […]10^5 cells/mL, 30° C. | [2]; CL3, […]10^5 cells/mL, 30°C, OD600 48 h, avg.
3.1 µg/mL: [1]; E4, […]10^5 cells/mL, 30°C, OD600 48 h, avg. | [1]; E4, […]10^5 cells/mL, 30°C, OD600 48 h, trial 1 | [1]; E4, […]10^5 cells/mL, 30°C, OD600 48 h, trial 2 | [1]; Gu5, […]10^3 cells/mL, 35°C, OD600 24 h, trial 2 | [1]; SC5314, […]10^3 cells/mL, 35°C, OD600 24 h, trial 1
6.8 µM: [1]; E4, […]10^3 cells/mL, 35°C, OD600 24 h, avg., read-out: MIC | [1]; E4, […]10^3 cells/mL, 35°C, OD600 24 h, trial 1, read-out: MIC | [1]; E4, […]10^3 cells/mL, 35°C, OD600 24 h, trial 2, read-out: MIC | [1]; SC5314, […]10^3 cells/mL, 35°C, OD600 24 h, trial 2, read-out: MIC
0.9 µM: [1]; C. albicans (Gu5), […]10^3 cells/mL, 35°C, read-out: MIC | [1]; C. albicans (SC5314), […]10^3 cells/mL, 35°C, read-out: MIC | [1]; Gu5, […]10^5 cells/mL, 30°C, OD600 48 h, avg., read-out: MIC | [1]; Gu5, […]10^5 cells/mL, 30°C, OD600 48 h, trial 1, read-out: MIC | [1]; Gu5, […]10^5 cells/mL, 30°C, OD600 48 h, trial 2, read-out: MIC | [1]; SC5314, […]10^5 cells/mL, 30°C, OD600 48 h, avg., read-out: MIC | [1]; SC5314, […]10^5 cells/mL, 30°C, OD600 48 h, trial 1, read-out: MIC | [1]; SC5314, […]10^5 cells/mL, 30°C, OD600 48 h, trial 2, read-out: MIC
<1.7 µM: [1]; Gu5, […]10^3 cells/mL, 35°C, OD600 24 h, trial 1, read-out: MIC | [1]; K1, […]10^3 cells/mL, 35°C, OD600 24 h, avg., read-out: MIC | [1]; K1, […]10^3 cells/mL, 35°C, OD600 24 h, trial 1, read-out: MIC | [1]; K1, […]10^3 cells/mL, 35°C, OD600 24 h, trial 2, read-out: MIC | [2]; CL3, […]10^3 cells/mL, 35°C, OD600 24 h, avg., read-out: MIC | [2]; CL3, […]10^3 cells/mL, 35°C, OD600 24 h, trial 1, read-out: MIC | [2]; CL3, […]10^3 cells/mL, 35°C, OD600 24 h, trial 2, read-out: MIC
6.3 µg/mL: [1]; E4, […]10^3 cells/mL, 35°C, OD600 24 h, avg. | [1]; E4, […]10^3 cells/mL, 35°C, OD600 24 h, trial 1 | [1]; E4, […]10^3 cells/mL, 35°C, OD600 24 h, trial 2 | [1]; SC5314, […]10^3 cells/mL, 35°C, OD600 24 h, trial 2
2.0 µg/mL: [1]; Gu5, […]10^3 cells/mL, 35°C, OD600 24 h, avg.
4.7 µg/mL: [1]; SC5314, […]10^3 cells/mL, 35°C, OD600 24 h, avg.
